The test system of data set [1] is resveratrol prenyltransferase AhR4DT. Briefly: Prenyltransferase assay with microsomal fraction of elicited peanut hairy roots. It is filed as biochemical, Arachis hypogaea. Conditions: microsomal fraction of peanut hairy roots, 28° C., 60 min; read-out: apparent km.
The conditions of data set [2]: in vivo; cited from earlier work.
Data set [3] addresses human cannabinoid receptors 2 (hCBR2s) (Homo sapiens, UniProt P34972). Conditions: cited from earlier work.
Another data set deals with macrophages. Conditions: cited from earlier work.
In data set [4] the test system is intracellular reactive oxygen species. The following applies: cited from earlier work.
Another data set concerns rotavirus. The following applies: HT29.f8 cells; cited from earlier work.
The next data set concerns leukemia HL-60 cells. The following applies: cited from earlier work.
The test system of data set [5] is SK-MEL, KB, BT-549, and SK-OV-3. Conditions: BT-549, SK-OV-3; cited from earlier work.
Data set [6] can be described thus: Lipophilicity from retention in reverse-phase HPLC. Conditions: later retention time in reverse-phase HPLC.
Substrate in data set [7]: CC(C)=CCOP(=O)(O)OP(=O)(O)O
Nature of the data set: cells, lysate or membranes named. The following applies: other: microsomal fraction of N. benthamiana leaves, pH 9.0, 28° C.

Substrate in data set [8]: Oc1cc(O)cc(/C=C/c2ccc(O)c(O)c2)c1
Briefly: cells, lysate or membranes named.

Substrate in data set [9]: Oc1ccc(/C=C/c2cc(O)cc(O)c2)cc1
Briefly: cells, lysate or membranes named. The following applies: other: microsomal fraction of N. benthamiana leaves, pH 9.0, 28° C.

The next data set addresses AhR4DT-1 (Arachis hypogaea, UniProt A0A2H4GDC8). Briefly: AhR4DT-1 activity in microsomal fraction of N. benthamiana leaves. Conditions: N. benthamiana leaves.
In the next data set the test system is resveratrol prenylation. Nature of the data set: Screening for stilbenoid prenylation activity, crude extract of infiltrated N. benthamiana leaves. The class given is biochemical, Arachis hypogaea. The following applies: resveratrol and DMAPP as substrates. Here is the method: The engineered A. tumefaciens was grown in 5 mL of YEP medium, containing 50 mg/L of kanamycin (Sigma-Aldrich) and 30 mg/L of streptomycin (Sigma-Aldrich) for antibiotic selection, at 28° C. on an orbital shaker at 200 rpm. After cultivation for 2 days, 5 mL of bacterial suspension was inoculated into 50 mL of fresh YEP medium containing the antibiotics and allowed to grow for one additional day under the same conditions. Bacteria were pelleted by centrifugation, resuspended in 500 mL of induction medium containing 10 mM MgCl2 with 1 mM acetosyringone and incubated for 4 h at 28° C. under 200 rpm orbital shaking until their OD600 reached to a range from 0.5 to 0.6. Before the infiltration, 0.005% of Tween-20, 0.005% of Triton 100 and 0.005% of Silwet L-77 were added to bacterial cultures to enhance the efficiency of transformation in N. benthamiana leaves. Agrobacterium-mediated vacuum infiltration was performed on 4-week-old N. benthamiana following the methodology described previously (Medrano et al., 2009).
After 48 hours of post-infiltration, the “middle tier” of N. benthamiana leaves were harvested for prenylation activity screening. Five grams of leaf tissue (fresh weight) were grounded and homogenized using a mortar with pestle in 10 mL of extraction buffer containing 100 mM Tris-HCl (pH 7.6) and 10 mM dithiothreitol (DTT). […] The total protein concentration was determined by coomassie protein assay (Thermo Scientific) using bovine serum albumin as standard.
The reaction of crude cell-free extract of N. benthamiana leaves infiltrated with A. tumefaciens harboring the empty pBIB-Kan vector was used as control.

In a further data set the target is AhR3′DT-1 (Arachis hypogaea, UniProt A0A2H4GDD0). Nature of the data set: AhR3′DT-1 activity in microsomal fraction of N. benthamiana leaves. The following applies: N. benthamiana leaves.

human cannabinoid receptors 2 (hCBR2s), sequence (P34972 whole entry): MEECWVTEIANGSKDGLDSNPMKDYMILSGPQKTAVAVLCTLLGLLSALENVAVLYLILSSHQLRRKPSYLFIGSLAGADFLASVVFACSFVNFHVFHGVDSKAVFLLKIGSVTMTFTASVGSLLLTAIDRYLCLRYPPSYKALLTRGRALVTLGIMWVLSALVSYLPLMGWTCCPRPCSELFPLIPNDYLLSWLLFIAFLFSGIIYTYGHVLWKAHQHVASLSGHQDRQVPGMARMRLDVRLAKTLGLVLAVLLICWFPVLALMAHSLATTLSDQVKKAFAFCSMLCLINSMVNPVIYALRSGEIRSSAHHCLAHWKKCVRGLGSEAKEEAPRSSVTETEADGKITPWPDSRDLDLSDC

By Km is commonly meant the concentration of substrate that gives half-maximal velocity. Consider `Oc1ccc(/C=C/c2cc(O)cc(O)c2)cc1` [resveratrol, 3,5,4′-trihydroxy-trans-stilbene], for which, in [1], the Km was determined as 111 ± 40.4 µM. Besides, the oral bioavailability entry in [2] is “limited oral bioavailability”.
On to `CC(C)/C=C/c1c(O)cc(/C=C/c2ccc(O)cc2)cc1O` [arachidin-3], for which the “binding to hCBR2s” value in [3] was “shown to bind”. The “inhibiting inducible nitric oxide production” value in the data set with macrophages is recorded as “more effective than resveratrol”. Also, the “inhibiting production of intracellular reactive oxygen species” value in data set [4] is “greater potency over resveratrol”. Further, the replication of rotavirus entry in the data set on rotavirus is given as “inhibiting the replication of rotavirus”.
As to `CC(C)/C=C/c1c(O)cc(/C=C/c2ccc(O)c(O)c2)cc1O` [arachidin-1], the “binding to hCBR2s” value in data set [3] is on record as “shown to bind”. For the same molecule, the “inhibiting inducible nitric oxide production” value with macrophages is recorded as “more effective than resveratrol”. Further, the cytotoxicity result (in the data set on leukemia HL-60 cells; in data set [5]) was “higher cytotoxicity than resveratrol” each time. For the same molecule, in the data set on rotavirus, the replication of rotavirus entry is recorded as “inhibiting the replication of rotavirus”. Further, in data set [6], the “lipophilicity compared with 3,3-dimethylallyl analogs” value is reported as “higher lipophilicity”.
`CC(C)=CCc1c(O)cc(/C=C/c2ccc(O)cc2)cc1O` [arachidin-2]: the “inhibiting inducible nitric oxide production” value with macrophages is “more effective than resveratrol”. For the same molecule, the “inhibiting production of intracellular reactive oxygen species” value in [4] was “greater potency over resveratrol”.

B1: AhR4DT-1 (Arachis hypogaea) (protein)
chain: MAFGHLVLIPRSTSSIATTAASCWKSKKFADNYYANSYGRRALWQSDRNLTKDHSIKTSLQHNISKLHYNPIERGSRCNKIEKTYLTNASSSAQSHESEPEVHESPKALESIKKGLVMFLQFCRLYAFLGMIPAGLSSSLLAVDNFSEISPLLFLKGVLQYIVTFFFTSQFVMGVNQLSDVEIDKINKPDLPLASGEYSFTSGVILVTSFLLAGFGVAWMLGSQPLIWSVVVTAALMGAYSVNFPLLRWKRSIILTSLSNAIAMLASFHIGPFLHMKTFVLKKAATFPRSMILGCVVIGLFYTIITLTKDLGDVEGDKAAGLKTLPIRLGVKPVFWLCVSLIQMAYGIAITMGALSPVLWSKIVTVVAHAFMVFYVWNHALNSVDLSSKDSLHSFHLFMFKLVTVEGILIQFVR
Consider B1, for which the Km in [7] is 153.7 ± 27.28 µM; in data set [8] (other: microsomal fraction of N. benthamiana leaves, pH 9.0, 28° C.), 311.4 ± 54.83 µM; in data set [9], 99.52 ± 15.11 µM. Moreover, the “specific activity, microsomal fraction vs crude cell-free extracts” value in the data set with AhR4DT-1 was 8.9 fold.

B2: AhR3′DT-1 (Arachis hypogaea) (protein)
chain: MAFGVVAASFSRAPSIVTTRGCYVTRASLPNKSLKFSKEYNLKTSLQHNWKHNSRSIFERGSTITTCDKYDEKKYLMNVTQSHEAEPHSQSILKSIIDALDAFRKFSRFYAFIAMVVGSLSTSLLAVDNLTELYPAFFNGFLQCMAAYFFMHLYIVGINQLADLEIDKINKPYLPLASGNYSFRTAVITVTSFLFTGFGIAWIIGSKPLLWTIFASFVLMTAYSVNLPLLRWKKSTILTVMGNTLSMVISFNLGPFYHMKTHVLKKAATFPRSLLFAVVVMSMYYIVIALTKDIPDIEGDKEAGLQTLAIRLGPKTVFWSSVALLEMAYGAAIIIGASSPFLWSKISVVLSHAILALFVWYRSTLVDLSNKDSLQAFYMLIFKLFSVENILMLFVR
Take B2: the resveratrol prenyltransferase activity entry in the data set with resveratrol prenylation was “highest activity”. Besides, the Michaelis-Menten constant (Km) in data set [7] is 691.4 ± 48.46 µM; in data set [8] (pH 9.0, 28.0 °C), 50.3 ± 5.509 µM; in data set [9], 17.67 ± 1.601 µM. Moreover, in the data set with AhR3′DT-1, the “specific activity, microsomal fraction vs crude cell-free extracts” value is listed as 13.9 fold.

The values above are taken from patent publication US11535856B2, “Stilbenoid prenyltransferases from plants” (Arkansas State University—Jonesboro, priority 2016, dated 2022).
